Measured values taken from patent US8198325B2, “Unsaturated alkyl esters of 5-aminolevulinic acid, their preparation and their use” (Industry Foundation of Chonnam National University, priority 2006, dated 2012).

What was measured:
Assay type in all cases: cell-based
[1] = test system: Squamous cell carcinoma (A431); test: Cytotoxicity test (cell survival), MTT assay, A431; conditions: 24 hours
Method: (§1) 3. Cytotoxicity Test (Cell Survival Test)
(§2) Cytotoxicity was conducted through an MTT assay (Chemicon, Serologicals Corporation, USA) as follows.
(§3) Cells were seeded at a density of 3×10^4 cells/well in 96-well plates (Nunc Do, Denmark).
(§4) When the cells were at a confluence of about 60˜70%, 24 hours after seeding, the media was exchanged for 100 μl of fresh, serum-free media containing various respective concentrations of ALA or ALA-ester, after which the cells were incubated for an additional 24 hours.
(§5) An MTT solution (0.5 mg/mL) was added in an amount of […] to each well, followed by incubation for 4 hours to form formazan crystals. A color-developing solution (isopropanol with 0.04 N HCl) was added in an amount of […] per well to solubilize the formazan crystals.
(§6) The plates were measured for absorbance at 570 nm using an ELISA reader (EMAX, Molecular Device, USA).
(3) Squamous Cell Carcinoma (A431)

[2] = test system: Human epidermal keratinocyte (HEK); test: Cytotoxicity test (cell survival), MTT assay, HEK; conditions: 24 hours; for MTT absorbance (OD): 570 nm; for Cell survival Avg (%) ± SD (%): Table 3; for activity at 10 µM / activity at 2000 µM / activity at 50 µM / activity at 100 µM / activity at 500 µM / activity at 1000 µM / activity at 5000 µM: Homo sapiens, Table 2, read-out: Cell survival (% of control C, in brackets); for activity at 10 µM: HEK001, 0.01 mM; for activity at 2000 µM: HEK2, 2 mM; for activity at 50 µM / activity at 100 µM / activity at 500 µM / activity at 1000 µM / activity at 5000 µM: Keratinocyte
Method: as §1, §2, §3, §4, §5, §6
(1) Human Epidermal Keratinocyte (HEK)
Cell survival of the human epidermal keratinocytes treated with ALA esters of the present invention and with ALA was compared. The results are summarized in Tables 1 and 2, which are represented in different manners depending on the measurements.

[3] = test system: Malignant melanoma (TMX 13); test: Cytotoxicity test (cell survival), MTT assay, TXM 13; conditions: 24 hours
Method: as §1, §2, §3, §4, §5, §6
(4) Malignant Melanoma (TMX 13)

[4] = test system: Human dermal fibroblast (hF); test: Cytotoxicity test (cell survival), MTT assay, hF; conditions: 24 hours
Method: as §1, §2, §3, §4, §5, §6
(2) Human Dermal Fibroblast (hF)

A431 cells = test: Fluorescence spectroscopy of PpIX synthesis in A431 cells (FIG. 1); conditions: 4 hours incubation, excitation 405 nm, emission 605 nm
Method: 4. Fluorescence Spectroscopy
The synthesis of PpIX, induced by ALA and unsaturated alkyl esters of ALA in cells and skin tissues, was quantified using fluorescence spectroscopy.
The intensity of PpIX was measured on a fluorescence spectrophotometer (Uvikon, model 943) with excitation at 408 nm.
Each cell line was plated at a density of 2×10^5 cells in a 10 cm^2-dish (Falcon), and when the cells reached a confluent state of 70˜80%, serum-free media containing various concentrations (0.001˜1 mM) of ALA or ALA esters was added to the cells, followed by incubation for 4 hours.
After being washed once with PBS, the cells were detached with a 50% methanol solution containing 1M […] (HClO4) and scraped off using a Costar cell scraper.
The cells thus harvested were incubated for 5 min and centrifuged.
The fluorescence of the supernatant thus obtained was determined using a spectrofluorometer with excitation at 405 nm and emission at 605 nm.
The results are graphed in FIGS. 1 and 2.

SMILES	Cell survival Avg (%) ± SD (%) ([1]; A431, 0.01 mM)	Cell survival Avg (%) ± SD (%) ([1]; A431, 0.05 mM)	Cell survival Avg (%) ± SD (%) ([1]; A431, 0.1 mM)	Cell survival Avg (%) ± SD (%) ([1]; A431, 0.5 mM)	Cell survival Avg (%) ± SD (%) ([1]; A431, 1 mM)	Cell survival Avg (%) ± SD (%) ([1]; A431, 2 mM)	MTT absorbance (OD) ([2]; 0.01 mM)	MTT absorbance (OD) ([2]; 0.05 mM)	Cell survival Avg (%) ± SD (%) ([2]; 0.05 mM)	MTT absorbance (OD) ([2]; 0.1 mM)	Cell survival Avg (%) ± SD (%) ([2]; 0.1 mM)	MTT absorbance (OD) ([2]; 0.5 mM)	Cell survival Avg (%) ± SD (%) ([2]; 0.5 mM)	MTT absorbance (OD) ([2]; 1 mM)	Cell survival Avg (%) ± SD (%) ([2]; 1 mM)	MTT absorbance (OD) ([2]; 2 mM)	Cell survival Avg (%) ± SD (%) ([2]; 2 mM)	MTT absorbance (OD) ([2]; 5 mM)	activity at 10 µM [2] [%]	activity at 2000 µM [2] [%]	other results
C=CCCOC(=O)CCC(=O)CN [ALA-3, 5-Aminolevulinic acid 3-butenyl ester]	104.08 ± 0.59	105.59 ± 0.51	105.48 ± 0.51	97.46 ± 3.82	97.65 ± 4.75	102.85 ± 1.53	2.919	3.57	94.01 ± 0.59	3.413	125.58 ± 0.51	2.838	88.14 ± 0.51	2.592	72.02 ± 3.82	2.185	83.69 ± 4.75	2.101	83.8	63.1	Cell survival Avg (%) ± SD (%) ([2]; 0.01 mM): 116.69 ± 0.69%; activity at 50 µM ([2]; 0.05 mM): 103%; activity at 100 µM ([2]; 0.1 mM): 98.2%; activity at 500 µM ([2]; 0.5 mM): 81.8%; activity at 1000 µM ([2]; 1 mM): 74.9%; activity at 5000 µM ([2]; 5 mM): 60.5%; Cell survival Avg ± SD (%) ([3]; TXM 13, 0.01 mM): 102.16 ± 10.55%; Cell survival Avg ± SD (%) ([3]; TXM 13, 0.05 mM): 95.03 ± 10%; Cell survival Avg ± SD (%) ([3]; TXM 13, 0.1 mM): 96.89 ± 7.99%; Cell survival Avg ± SD (%) ([3]; TXM 13, 0.5 mM): 90.58 ± 3.8%; Cell survival Avg ± SD (%) ([3]; TXM 13, 1 mM): 92.34 ± 4.31%; Cell survival Avg ± SD (%) ([3]; TXM 13, 2 mM): 78.81 ± 6.22%; Cell survival Avg (%) ± SD (%) ([4]; 0.01 mM): 114.28 ± 5.4%; Cell survival Avg (%) ± SD (%) ([4]; 0.05 mM): 126.76 ± 3.88%; Cell survival Avg (%) ± SD (%) ([4]; 0.1 mM): 115.65 ± 6.85%; Cell survival Avg (%) ± SD (%) ([4]; 0.5 mM): 110.21 ± 4.21%; Cell survival Avg (%) ± SD (%) ([4]; 1 mM): 96.59 ± 16.88%; Cell survival Avg (%) ± SD (%) ([4]; 2 mM): 94.97 ± 9.7%
C=CCCCOC(=O)CCC(=O)CN [ALA-4, 5-Aminolevulinic acid 4-pentenyl ester]	101.68 ± 0.81	102.51 ± 0.54	93.24 ± 2.17	80.91 ± 1.6	80.11 ± 3.43	84.57 ± 1.77	2.8	2.603	66.21 ± 0.59	2.98	53.63 ± 0.51	2.561	50.17 ± 0.51	2.475	57.17 ± 1.60	2.407	44.82 ± 3.43	1.354	77.3	66.3	PpIX synthesis compared with ALA (A431 cells): greater PpIX synthesis in A431 cells than did ALA; activity at 50 µM ([2]; 0.05 mM): 71.6%; activity at 100 µM ([2]; 0.1 mM): 82%; activity at 500 µM ([2]; 0.5 mM): 70.5%; activity at 1000 µM ([2]; 1 mM): 68.3%; activity at 5000 µM ([2]; 5 mM): 37.1%; Cell survival Avg ± SD (%) ([3]; TXM 13, 0.01 mM): 96.3 ± 14.69%; Cell survival Avg ± SD (%) ([3]; TXM 13, 0.05 mM): 83.42 ± 12.09%; Cell survival Avg ± SD (%) ([3]; TXM 13, 0.1 mM): 72.55 ± 9.25%; Cell survival Avg ± SD (%) ([3]; TXM 13, 0.5 mM): 75.01 ± 13.79%; Cell survival Avg ± SD (%) ([3]; TXM 13, 1 mM): 60.95 ± 8.31%; Cell survival Avg ± SD (%) ([3]; TXM 13, 2 mM): 49.85 ± 53.24%; Cell survival Avg (%) ± SD (%) ([4]; 0.01 mM): 101.13 ± 13.45%; Cell survival Avg (%) ± SD (%) ([4]; 0.05 mM): 114.49 ± 17.1%; Cell survival Avg (%) ± SD (%) ([4]; 0.1 mM): 103.35 ± 14.09%; Cell survival Avg (%) ± SD (%) ([4]; 0.5 mM): 95.81 ± 10.6%; Cell survival Avg (%) ± SD (%) ([4]; 1 mM): 100.32 ± 6.36%; Cell survival Avg (%) ± SD (%) ([4]; 2 mM): 93.13 ± 8.07%
